Test system: HUVECs
Type: cell-based
Conditions: HUVEC proliferation, bFGF at 10 ng/ml or VEGF at 5 ng/ml, 48 hours, BrdU incorporation; read-out: IC50 on HUVECs
Outline: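 HUVECs seeded at 5,000 cells/well in EBM with 2% FCS, adhered ≥12 hours, then stimulated with bFGF 10 ng/ml or VEGF 5 ng/ml plus varying peptide concentrations. After 48 hours at 37 ° C, 5% CO2, proliferation inhibition read by BrdU incorporation.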

Sequence	IC50 [µM]
KTKRKRIKQRVKRAYEEIF [compound 137]	> 30
KTKRKRKAARVKIAYEEIFVQNM [compound 53]	> 30
KTKRKRKAQRVKIIFVQNM [compound 116]	< 10
KTKRKRKKARVKIIFVQNM [compound 115]	< 10
KTKRKRKKIAYEEIFVQNM [compound 58]	> 30
KTKRKRKKQAAKIAYEEIFVQNM [compound 73]	> 30
KTKRKRKKQAVKIIFVQNM [compound 114]	> 30
KTKRKRKKQAYEEIFVQNM [compound 29]	> 30
KTKRKRKKQRAKIIFVQNM [compound 113]	< 10
KTKRKRKKQRVAAAYEEIFVQNM [compound 50]	> 30
KTKRKRKKQRVAIIFVQNM [compound 112]	< 10
KTKRKRKKQRVEEIFVQNM [compound 31]	> 30
KTKRKRKKQRVKAIFVQNM [compound 111]	10 to 30
KTKRKRKKQRVKEIFVQNM [compound 32]	> 30
KTKRKRKKQRVKI [compound 38]	> 30
KTKRKRKKQRVKIA [compound 37]	> 30
KTKRKRKKQRVKIAAEEIFVQNM [compound 49]	> 30
KTKRKRKKQRVKIAFVQNM [compound 110]	10 to 30
KTKRKRKKQRVKIAY [compound 36]	> 30
KTKRKRKKQRVKIAYAAIFVQNM [compound 48]	> 30
KTKRKRKKQRVKIAYE [compound 35]	> 30
KTKRKRKKQRVKIAYEE [compound 18]	10 to 30
KTKRKRKKQRVKIAYEEAAVQNM [compound 47]	> 30
KTKRKRKKQRVKIAYEEI [compound 17]	10 to 30
KTKRKRKKQRVKIAYEEIF [compound 16]	10 to 30
KTKRKRKKQRVKIAYEEIFAANM [compound 46]	10 to 30
KTKRKRKKQRVKIAYEEIFV [compound 15]	< 10

Sequence	IC50 [µM]
KTKRKRKKQRVKIAYEEIFVK [compound 14]	< 10
KTKRKRKKQRVKIAYEEIFVKN [compound 13]	< 10
KTKRKRKKQRVKIAYEEIFVKNM [compound 5]	< 10
KTKRKRKKQRVKIAYEEIFVQ [compound 26]	< 10
KTKRKRKKQRVKIAYEEIFVQAA [compound 45]	10 to 30
KTKRKRKKQRVKIAYEEIFVQN [compound 25]	< 10
KTKRKRKKQRVKIAYEEIM [compound 42]	> 30
KTKRKRKKQRVKIAYEENM [compound 41]	> 30
KTKRKRKKQRVKIAYEEVFVKNM [compound 6]	< 10
KTKRKRKKQRVKIAYEQNM [compound 40]	> 30
KTKRKRKKQRVKIAYVQNM [compound 39]	10 to 30
KTKRKRKKQRVKIIAVQNM [compound 109]	> 30
KTKRKRKKQRVKIIF [compound 79]	> 30
KTKRKRKKQRVKIIFAQNM [compound 108]	10 to 30
KTKRKRKKQRVKIIFV [compound 85]	< 10
KTKRKRKKQRVKIIFVANM [compound 107]	< 10
KTKRKRKKQRVKIIFVQAM [compound 106]	< 10
KTKRKRKKQRVKIIFVQNA [compound 105]	< 10
KTKRKRKKQRVKIIFVQNM [compound 33]	< 10
KTKRKRKKQRVKRAYEEIF [compound 136]	> 30
KTKRKRKKQRYEEIFVQNM [compound 30]	> 30
KTKRKRVKIAYEEIFVQNM [compound 52]	> 30
NKRKKQRVKIIFVKVFIIKVRQKKRKN [compound 151]	< 10
RKKQQRVKIAYEEIFV [compound 78]	> 30
RKKQRVKIAYEEIF [compound 69]	> 30
RKKQRVKIAYEEIFV [compound 64]	10 to 30
RKKQRVKIAYEEIFVKNM [compound 11]	> 30
